Values quoted from earlier work in patent US20160199302A1, “Pharmaceutical Composition Comprising Temozolomide With Improved Stability and Process for Manufacturing the Same” (Samyang Biopharmaceuticals Corporation, priority 2012, published 2016).

Conditions: background

Solubility in water: water-insoluble
SMILES: Cn1nnc2c(C(N)=O)ncn2c1=O [temozolomide, 3,4-dihydro-3-methyl-4-oxoimidazo[5,1-d]-as-tetrazine-8-carboxamide]
